This note sets out measurements from patent publication US20110086759A1, “CHEMICAL COMPOUNDS” (SYNGENTA CROP PROTECTION, INC., priority 2007, published 2011).

Each structure is given as a SMILES string.

Common to all, as to assay type: in vivo
For test [1], the system named is Alopecurus myosuroides (ALOMY). The experiment in a line: Pre-emergence biological efficacy, glasshouse pot test. Conditions: 312 h, pre-emergence, 1,000 g/ha, evaluated after 13 days (100=total damage; 0=no damage), read-out: Percentage damage ALOMY. A digest of the protocol: (§1)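 One day after sowing in standard soil, pots were sprayed with compound in acetone/water (50:50) with 0.5% Tween 20, at 1000 or 250 g/ha. Plants grew at 24/16° C day/night, 14 h light, 65% humidity. Damage was scored after 13 days (0 = none, 100 = total).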

The subject of test [2] is Amaranthus retoflexus (AMARE). Described as above. Conditions: Amaranthus retroflexus, 312 h; pre-emergence, 1,000 g/ha, evaluated after 13 days (100=total damage; 0=no damage); read-out: Percentage damage AMARE. A digest of the protocol: as §1
Test [3] deals with Echinochloa crus-galli (ECHCG). Described as above. Conditions: 312 h, pre-emergence, 1,000 g/ha, evaluated after 13 days (100=total damage; 0=no damage), read-out: Percentage damage ECHCG. A digest of the protocol:
as §1

Test [4] has as its system Ipomea hederaceae (IPOHE). The description is as above. The conditions noted are these: Ipomoea hederacea, 312 h; pre-emergence, 1,000 g/ha, evaluated after 13 days (100=total damage; 0=no damage); read-out: Percentage damage IPOHE. A digest of the protocol: as §1
In test [5] the test system is Setaria faberi (SETFA). The test is described as above. Conditions: 312 h, pre-emergence, 1,000 g/ha, evaluated after 13 days (100=total damage; 0=no damage), read-out: Percentage damage SETFA. A digest of the protocol: as §1
Test [6] relates to Solanum nigrum (SOLNI). The test is described as above. Conditions: 312 h, pre-emergence, 1,000 g/ha, evaluated after 13 days (100=total damage; 0=no damage), read-out: Percentage damage SOLNI. A digest of the protocol: as §1
Test [7] relates to Alopecurus myosuroides (ALOMY). The experiment in a line: Post-emergence biological efficacy, glasshouse pot test. Conditions: 312 h, post-emergence, 1,000 g/ha, evaluated after 13 days (100=total damage; 0=no damage), read-out: Percentage damage caused to weed species, ALOMY. A digest of the protocol: (§2)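 Pot-grown weeds were sprayed 8 days after sowing with test compound in acetone/water (50:50) with 0.5% Tween 20 at 1000 or 250 g/ha. Glasshouse at 24/16° C day/night, 14 h light, 65% humidity. Damage scored 0-100 (100 = total damage) after 13 days.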

Test [8] has as its system Amaranthus retoflexus (AMARE). The test is described as above. Conditions: Amaranthus retroflexus, 312 h; post-emergence, 1,000 g/ha, evaluated after 13 days (100=total damage; 0=no damage); read-out: Percentage damage caused to weed species, AMARE. A digest of the protocol: as §2
For test [9], the system named is Echinochloa crus-galli (ECHCG). Described as above. The conditions noted are these: 312 h, post-emergence, 1,000 g/ha, evaluated after 13 days (100=total damage; 0=no damage), read-out: Percentage damage caused to weed species, ECHCG. A digest of the protocol: as §2
The subject of test [10] is Ipomea hederaceae (IPOHE). The description is as above. The conditions noted are these: Ipomoea hederacea, 312 h; post-emergence, 1,000 g/ha, evaluated after 13 days (100=total damage; 0=no damage); read-out: Percentage damage caused to weed species, IPOHE. A digest of the protocol: as §2
Test [11] has as its system Setaria faberi (SETFA). Described as above. Conditions: 312 h, post-emergence, 1,000 g/ha, evaluated after 13 days (100=total damage; 0=no damage), read-out: Percentage damage caused to weed species, SETFA. A digest of the protocol:
as §2

For test [12], the system named is Solanum nigrum (SOLNI). The description is as above. The conditions noted are these: 312 h, post-emergence, 1,000 g/ha, evaluated after 13 days (100=total damage; 0=no damage), read-out: Percentage damage caused to weed species, SOLNI. A digest of the protocol: as §2

With `C=CCC(Nc1nc(C2CC2)nc(C(=O)OC)c1Cl)c1ccccn1` (stereo not drawn) [Compound 4-199, 5-Chloro-2-cyclopropyl-6-methoxycarbonyl-4-[1-(pyrid-2-yl)-but-3-enylamino]-pyrimidine], the pest or weed control at 1000 g/ha was 0% in [1]; 0% in [2]; 0% in test [3]; 40% in test [4]; 0% in the test with Setaria faberi (SETFA) [5]; 0% in the test on Solanum nigrum (SOLNI) [6]. The pest or weed control at 1000 g/ha came out at 0% in test [7]; 50% in [8]; 0% in test [9]; 80% in test [10]; 0% with Setaria faberi (SETFA) [11]; 60% in the test with Solanum nigrum (SOLNI) [12].

As to `COC(=O)c1nc(C2CC2)nc(NC(c2ccc(Cl)cc2)C2CC2)c1Cl` (stereo not drawn) [Compound 4-200, 5-Chloro-4-[1-(4-chlorophenyl)-1-(cyclopropyl)methyl-amino]-2-cyclopropyl-6-methoxycarbonyl-pyrimidine], the pest or weed control at 1000 g/ha was found to be 0% in test [1]; 20% in test [2]; 0% in [3]; 50% in [4]; 0% with Setaria faberi (SETFA) [5]; 0% in the test on Solanum nigrum (SOLNI) [6]. The pest or weed control at 1000 g/ha in [7] was determined as 20%; in [8], 100%; in test [9], 20%; in [10] it was 90%; with Setaria faberi (SETFA) [11], 40%; in the test with Solanum nigrum (SOLNI) [12], 80%.

As for `COC(=O)c1nc(C2CC2)nc(NC(CO)C2CCOC2)c1Cl` (stereo not drawn) [Compound 4-201, 5-Chloro-2-cyclopropyl-4-(2-hydroxy-1-tetrahydrofuran-3-yl-ethylamino)-6-methoxycarbonyl-pyrimidine], the pest or weed control at 1000 g/ha came to 0% in test [1]; 100% in [2]; 20% in test [3]; 100% in test [4]; 10% with Setaria faberi (SETFA) [5]; 100% in the test on Solanum nigrum (SOLNI) [6]. Further, the pest or weed control at 1000 g/ha is 10% in test [7]; 100% in [8]; 10% in [9]; 60% in [10]; 20% in the test with Setaria faberi (SETFA) [11]; 90% in the test with Solanum nigrum (SOLNI) [12].

Consider `COC(=O)c1nc(C2CC2)nc(NC(CO)C2CCOCC2)c1Cl` (stereo not drawn) [Compound 4-202, 5-Chloro-2-cyclopropyl-4-(2-hydroxy-1-tetrahydropyran-4-yl-ethylamino)-6-methoxycarbonyl-pyrimidine], for which the pest or weed control at 1000 g/ha is 20% in [1]; 60% in [2]; 30% in [3]; 100% in test [4]; 30% in the test with Setaria faberi (SETFA) [5]; 70% with Solanum nigrum (SOLNI) [6]. Further, the pest or weed control at 1000 g/ha was found to be 10% in [7]; 100% in test [8]; 0% in test [9]; 50% in [10]; 30% in the test on Setaria faberi (SETFA) [11]; 80% with Solanum nigrum (SOLNI) [12].

With `COC(=O)c1nc(C2CC2)nc(NC(CO)c2ccccc2)c1Cl` (stereo not drawn) [Compound 4-203, 5-Chloro-2-cyclopropyl-4-(2-hydroxy-1-phenyl-ethylamino)-6-methoxycarbonyl-pyrimidine], the pest or weed control at 1000 g/ha in [1] came to 30%; in test [2], 100%; in [3] it was 60%; in test [4], 100%; in the test with Setaria faberi (SETFA) [5] it was 60%; in the test with Solanum nigrum (SOLNI) [6], 80%. The pest or weed control at 1000 g/ha in test [7] came out at 40%; in test [8], 100%; in test [9], 30%; in [10] it was 50%; with Setaria faberi (SETFA) [11], 40%; in the test with Solanum nigrum (SOLNI) [12], 80%.

`COC(=O)c1nc(C2CC2)nc(NC(CS(C)(=O)=O)c2ccc(OC)cc2)c1Cl` (stereo not drawn) [Compound 4-205, 5-Chloro-2-cyclopropyl-6-methoxycarbonyl-4-[1-(4-methoxy-phenyl)-2-methylsulphonyl-ethylamino]-pyrimidine]: the pest or weed control at 1000 g/ha (in [1]; in test [2]; in test [3]; in test [4]; in the test with Setaria faberi (SETFA) [5]; in the test on Solanum nigrum (SOLNI) [6]) was 0% throughout. For the same compound, the pest or weed control at 1000 g/ha came out at 0% in test [7]; 20% in test [8]; 0% in test [9]; 20% in [10]; 0% in the test with Setaria faberi (SETFA) [11]; 10% in the test on Solanum nigrum (SOLNI) [12].

Consider `COC(=O)c1nc(C2CC2)nc(NC(C(=O)OC)c2ccccc2)c1Cl` (stereo not drawn) [Compound 4-210, 5-Chloro-2-cyclopropyl-6-methoxycarbonyl-4-(1-methoxy-carbonyl-1-phenyl-methylamino)-pyrimidine], for which the pest or weed control at 1000 g/ha in test [1] amounted to 20%; in [2] it was 100%; in [3] it was 50%; in test [4] it was 100%; with Setaria faberi (SETFA) [5], 20%; in the test on Solanum nigrum (SOLNI) [6] it was 90%. In addition, the pest or weed control at 1000 g/ha in test [7] was found to be 60%; in test [8], 50%; in test [9] it was 60%; in test [10] it was 40%; with Setaria faberi (SETFA) [11], 80%; with Solanum nigrum (SOLNI) [12], 40%.

With `CCOC(=O)C(Nc1nc(C2CC2)nc(C(=O)OC)c1Cl)c1ccccc1` (stereo not drawn) [Compound 4-214, 5-Chloro-2-cyclopropyl-4-[(1-ethoxycarbonyl-1-phenyl)-methyl-amino]-6-methoxy-carbonylpyrimidine], the pest or weed control at 1000 g/ha in test [1] came to 20%; in test [2] it was 100%; in test [3] it was 60%; in test [4] it was 100%; with Setaria faberi (SETFA) [5], 40%; with Solanum nigrum (SOLNI) [6] it was 90%. Besides, the pest or weed control at 1000 g/ha in test [7] amounted to 50%; in test [8], 100%; in test [9], 70%; in test [10] it was 100%; with Setaria faberi (SETFA) [11], 70%; with Solanum nigrum (SOLNI) [12], 80%.

Take `COC(=O)c1nc(C2CC2)nc(NCCC2OCCO2)c1Cl` [Compound 4-216, 5-Chloro-2-cyclopropyl-4-[2-(1,3-dioxolan-2-yl)ethylamino]-6-methoxycarbonyl-pyrimidine]: the pest or weed control at 1000 g/ha came out at 30% in test [1]; 100% in test [2]; 40% in [3]; 100% in [4]; 40% in the test on Setaria faberi (SETFA) [5]; 90% with Solanum nigrum (SOLNI) [6]. The pest or weed control at 1000 g/ha in test [7] was 20%; in test [8], 100%; in test [9], 20%; in test [10] it was 80%; in the test with Setaria faberi (SETFA) [11], 60%; in the test on Solanum nigrum (SOLNI) [12] it was 70%.
